ChEMBL document CHEMBL4433235, “Discovery of piperazic acid peptide deformylase inhibitors with in vivo activity for respiratory tract and skin infections” (Bioorg Med Chem Lett, 2019)
pIC50, pKi: −log10 of the molar value. ≈ marks a conversion by molar mass, not a printed value.

Tests used:
[1] = molecular target: T1, Peptide deformylase (Escherichia coli, UniProt Q9JN24); experiment: Inhibition of Escherichia coli PDF
T1 sequence (Q9JN24 whole entry): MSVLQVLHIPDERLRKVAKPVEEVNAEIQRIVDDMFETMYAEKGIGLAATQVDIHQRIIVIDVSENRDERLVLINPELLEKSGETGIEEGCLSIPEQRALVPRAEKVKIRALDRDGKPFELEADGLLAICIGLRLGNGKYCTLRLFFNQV

[2] = molecular target: T2, Peptide deformylase (Staphylococcus aureus, UniProt P68826); experiment: Inhibition of Staphylococcus aureus PDF by absorbance detection assay
T2 sequence (P68826 whole entry): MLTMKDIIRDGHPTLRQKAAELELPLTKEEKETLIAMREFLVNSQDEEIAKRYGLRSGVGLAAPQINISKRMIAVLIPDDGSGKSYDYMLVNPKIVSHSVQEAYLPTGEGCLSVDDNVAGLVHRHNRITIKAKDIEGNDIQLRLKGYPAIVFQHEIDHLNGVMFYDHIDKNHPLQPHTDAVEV

[3] = Inhibition of Streptococcus pneumoniae PDF by absorbance detection assay
[4] = tested on: Staphylococcus aureus; experiment: Antimicrobial activity against Staphylococcus aureus Oxford; format: functional
[5] = tested on: Haemophilus influenzae; experiment: Antimicrobial activity against Haemophilus influenzae Q1; format: functional
[6] = tested on: Streptococcus pneumoniae; experiment: Antimicrobial activity against Streptococcus pneumoniae 1629; format: functional
[7] = Chromatographic hydrophobicity index, log D of compound at pH 7.4; format: physicochemical; conditions: buffer
[8] = Solubility of compound by chemiluminescent nitrogen detection assay; format: physicochemical
[9] = tested on: Staphylococcus aureus; experiment: Antimicrobial activity against Staphylococcus aureus; format: functional
[10] = tested on: Haemophilus influenzae; experiment: Antimicrobial activity against Haemophilus influenzae; format: functional
[11] = tested on: Streptococcus pneumoniae; experiment: Antimicrobial activity against Streptococcus pneumoniae; format: functional
[12] = Inhibition of Haemophilus influenzae PDF by absorbance detection assay
[13] = Half life in rat at 3 mg/kg, iv; format: ADME, organism-based; conditions: in vivo
[14] = Clearance in rat at 3 mg/kg, iv; format: ADME, organism-based; conditions: in vivo
[15] = Volume of distribution at steady state in rat at 3 mg/kg, iv; format: ADME, organism-based; conditions: in vivo, read-out: Vdss
[16] = AUC in rat at 3 mg/kg, iv; format: ADME, organism-based; conditions: in vivo
[17] = Half life in rat at 5 mg/kg, po; format: ADME, organism-based; conditions: in vivo
[18] = Cmax in rat at 5 mg/kg, po; format: ADME, organism-based; set-up: dose 5 mg/kg, route oral; conditions: in vivo
[19] = AUC in rat at 5 mg/kg, po; format: ADME, organism-based; conditions: in vivo
[20] = Oral bioavailability in rat at 5 mg/kg; format: ADME, organism-based; conditions: in vivo
[21] = molecular target: T2, Peptide deformylase; experiment: Inhibition of Staphylococcus aureus PDF by fluorescence detection assay
[22] = Inhibition of Haemophilus influenzae PDF by fluorescence detection assay
[23] = Inhibition of Streptococcus pneumoniae PDF by fluorescence detection assay
[24] = Half life in rat at 3.9 mg/kg, iv; format: ADME, organism-based; conditions: in vivo
[25] = Clearance in rat at 3.9 mg/kg, iv; format: ADME, organism-based; conditions: in vivo
[26] = Volume of distribution at steady state in rat at 3.9 mg/kg, iv; format: ADME, organism-based; conditions: in vivo, read-out: Vdss
[27] = AUC in rat at 3.9 mg/kg, iv; format: ADME, organism-based; conditions: in vivo
[28] = Cmax in rat at 8.5 mg/kg, po; format: ADME, organism-based; set-up: dose 8.5 mg/kg, route oral; conditions: in vivo
[29] = AUC in rat at 8.5 mg/kg, po; format: ADME, organism-based; conditions: in vivo
[30] = Oral bioavailability in rat at 8.5 mg/kg; format: ADME, organism-based; conditions: in vivo

SMILES	pIC50 [2]	pIC50 [3]	MIC [4] [µg/mL]	MIC [5] [µg/mL]	MIC [6] [µg/mL]	CHI [7]	solubility kinetic [8] [µM]	MIC90 [9] [µg/mL]	MIC90 [10] [µg/mL]	MIC90 [11] [µg/mL]	pIC50 [12]	pIC50 [21]	pIC50 [22]	pIC50 [23]	also measured
CCC(=O)[C@@H](NC(=O)[C@@H]1CCCNN1C(=O)[C@@H](CC(=O)O)CC(C)C)C(C)C	–	–	–	–	–	–	–	–	–	–	–	–	–	–	pKi [1]: 7.22
O=CN(O)C[C@@H](CC1CCCC1)C(=O)N1NCCC[C@H]1C(=O)Nc1ccc(F)cn1	8.70	9.22	0.5 (≈ 1.19 µM)	0.5 (≈ 1.19 µM)	1 (≈ 2.37 µM)	4.13	> 739	1 (≈ 2.37 µM)	2 (≈ 4.75 µM)	2 (≈ 4.75 µM)	–	–	–	–	–
Cc1nc(NC(=O)[C@@H]2CCCNN2C(=O)[C@H](CC2CCCC2)CN(O)C=O)sc1C	9.20	9.70	0.25 (≈ 0.571 µM)	2 (≈ 4.57 µM)	1 (≈ 2.29 µM)	4.29	381 (≈ 167 µg/mL)	0.5 (≈ 1.14 µM)	2 (≈ 4.57 µM)	0.5 (≈ 1.14 µM)	9.00	–	–	–	half-life [13]: 1.1 h; clearance [14]: 49 mL/min/kg; Vd [15]: 1.6 L/kg; AUC [16]: 1030 ng·h/mL; half-life [17]: 3.8 h; Cmax [18]: 349 ng/mL; AUC [19]: 700 ng·h/mL; bioavailability [20]: 41%
Cc1ccc(NC(=O)[C@@H]2CCCNN2C(=O)[C@H](CC2CCCC2)CN(O)C=O)nc1	–	–	1 (≈ 2.4 µM)	1 (≈ 2.4 µM)	2 (≈ 4.79 µM)	4.1	> 565	1 (≈ 2.4 µM)	4 (≈ 9.58 µM)	2 (≈ 4.79 µM)	–	8.70	7.60	9.22	–
CN1CCN(c2cncc(NC(=O)[C@@H]3CCCNN3C(=O)[C@H](CC3CCCC3)CN(O)C=O)n2)CC1	–	–	16 (≈ 31.8 µM)	2 (≈ 3.98 µM)	4 (≈ 7.96 µM)	2.57	> 359	–	–	–	–	8.00	–	8.70	–
CN1CCN(c2cc(NC(=O)[C@@H]3CCCNN3C(=O)[C@H](CC3CCCC3)CN(O)C=O)ncn2)CC1	–	–	0.5 (≈ 0.995 µM)	2 (≈ 3.98 µM)	0.25 (≈ 0.497 µM)	2.7	> 573	0.5 (≈ 0.995 µM)	2 (≈ 3.98 µM)	0.25 (≈ 0.497 µM)	–	8.52	7.60	9.00	–
Cc1nc(NNC(=O)[C@H](CC2CCCC2)CN(O)C=O)c(F)c(N2CCN3CCOC[C@@H]3C2)n1 [LANOPEPDEN]	7.92	8.52	2 (≈ 4.17 µM)	0.5 (≈ 1.04 µM)	1 (≈ 2.09 µM)	2.54	241 (≈ 116 µg/mL)	4 (≈ 8.34 µM)	2 (≈ 4.17 µM)	1 (≈ 2.09 µM)	8.52	–	–	–	half-life [24]: 0.7 h; clearance [25]: 88 mL/min/kg; Vd [26]: 2.5 L/kg; AUC [27]: 720 ng·h/mL; Cmax [28]: 902 ng/mL; AUC [29]: 1450 ng·h/mL; bioavailability [30]: 91%
Cc1cccnc1NC(=O)[C@@H]1CCCNN1C(=O)[C@H](CC1CCCC1)CN(O)C=O	–	–	8 (≈ 19.2 µM)	2 (≈ 4.79 µM)	8 (≈ 19.2 µM)	2.94	483 (≈ 202 µg/mL)	–	–	–	–	7.80	7.10	8.00	–
O=CN(O)C[C@@H](CC1CCCC1)C(=O)N1NCCC[C@H]1C(=O)N1CCCCC1	8.22	8.70	1 (≈ 2.53 µM)	2 (≈ 5.07 µM)	4 (≈ 10.1 µM)	3.3	> 739	–	–	–	8.10	–	–	–	–
O=CN(O)C[C@@H](CC1CCCC1)C(=O)N1NCCC[C@H]1C(=O)Nc1ccncn1	8.70	9.52	2 (≈ 4.94 µM)	1 (≈ 2.47 µM)	2 (≈ 4.94 µM)	2.7	> 464	1 (≈ 2.47 µM)	2 (≈ 4.94 µM)	2 (≈ 4.94 µM)	8.22	–	–	–	–
CCCNC(=O)[C@@H]1CCCNN1C(=O)[C@H](CC1CCCC1)CN(O)C=O	7.96	8.52	4 (≈ 10.9 µM)	0.5 (≈ 1.36 µM)	4 (≈ 10.9 µM)	3.19	> 544	–	–	–	8.30	–	–	–	–
O=CN(O)C[C@@H](CC1CCCC1)C(=O)N1NCCC[C@H]1C(=O)Nc1cccc2c1COB2O	–	–	2 (≈ 4.36 µM)	0.5 (≈ 1.09 µM)	8 (≈ 17.5 µM)	3.2	> 544	–	–	–	–	6.80	7.10	7.40	–
